Assay [1] deals with IFNα-induced pSTAT3 (JAK1/TYK2 signaling pathway). Nature of the assay: Mouse whole blood assay, inhibition of IFNα-induced pSTAT3. The following applies: C57BL/6J mouse blood, IFNα 20000 IU/mL. It is filed as cell-based. As to the method:
Cytokine IFNα can induce STAT3 phosphorylation (pSTAT3) through the JAK1/TYK2 signaling pathway. […] IFNα used was Recombinant mouse IFNα (Miltenyi #130-093-131), the pSTAT3 antibody used was Alexa Fluor 488 anti-STAT3 Phospho (Tyr705) Antibody (Biolegend #651106), and the CD3 antibody used was Brilliant Violet 421 anti-mouse CD3 Antibody (Biolegend #100228). The cytokine dilution buffer was PBS+0.1% BSA, which was filtered and stored at […]. The FACS buffer was PBS+0.2% BSA+1 mM EDTA. Specific steps are described below. • 1. C57BL/6J mouse blood was added to a 96-well plate, with 90 μL per well. • 2. Each well was added with 5 μL of the compound ([…]), uniformly mixed and incubated at 37° C. for 60 min in an incubator. • 3. Each well was added with 5 μL of 20×IFNα (with a working concentration of 20000 IU/mL) as the stimulation factor, uniformly mixed and incubated at 37° C. for 30 min. • 4. Blood was transferred to a 96-deep-well plate, and each well was added with 1 mL of Lyse fix buffer (1×), uniformly mixed and incubated at 37° C. for 10 min. • 5. The plate was centrifuged at 600 g for 5 min and the supernatant was discarded. 1 mL of PBS was added to each well and centrifuged at 600 g for 5 min and the supernatant was discarded, which were repeated twice. Each well was added with 100 μL of the anti-mCD3 antibody (diluted by a fold of 80 with the cytokine dilution buffer), uniformly mixed and incubated at 4° C. for 30 min. • 6. 1 mL of PBS was added to each well and centrifuged at 600 g for 5 min and the supernatant was discarded, which were repeated twice. Each well was added with 1000 μL of Perm III, uniformly mixed and incubated at 4° C. for 30 min. • 7. The plate was centrifuged at 600 g for 5 min and the supernatant was discarded. 1 mL of PBS was added to each well and centrifuged at 600 g for 5 min and the supernatant was discarded, which were repeated twice. • 8. Each well was added with 100 μL of the anti-pSTAT3 antibody (diluted by a fold of 50 with the FACS buffer), uniformly mixed and incubated at 25° C. for 40 min. • 9. 1 mL of the FACS buffer was added to each well and centrifuged at 600 g for 5 min and the supernatant was discarded. 200 μL of the FACS buffer was added to each well and resuspended. All samples were transferred to a 96-well tip-bottom plate and uploaded. • 10. Data were collected and analyzed.

For a further assay, the target named is JAK1 (Homo sapiens (Human), UniProt P23458). Nature of the assay: JAK1 inhibitory activity, mobility shift assay, 1 mM ATP. It is filed as biochemical. The following applies: 1 mM ATP; Table 7. As to the method:
(§1) The JAK1 inhibitory activity and the JAK2 inhibitory activity of the amide compounds provided in the above examples were tested by the method below.
(§2) Specific steps are described below. • 1. A 1× Kinase buffer was formulated. • 2. Concentration gradients of the compound were formulated: a test compound with an initial concentration of 10000 nM (JAK1) or 30000 nM (JAK2) was diluted in a 384-well plate to a 100% DMSO solution with a 100-fold final concentration, wherein the compound was diluted by a fold of 3 to 10 concentrations. 250 nL of the compound with the 100-fold final concentration was transferred with a dispenser Echo 550 to the target plate. • 3. A kinase solution with a 2.5-fold final concentration was prepared with the 1× Kinase buffer. • 4. […] The plate was centrifuged at 1000 rpm for 30 s, shaken and uniformly mixed, and incubated for 10 min at room temperature. • 6. A mixed solution of ATP (the final concentration of ATP=1 mM) and Kinase substrate with a 5/3-fold final concentration was formulated with the 1× Kinase buffer. • 7. 15 μL of the mixed solution of ATP and the substrate with the 5/3-fold final concentration was added to initiate the reaction. • 8. The 384-well plate was centrifuged at 1000 rpm for 30 s, shaken and uniformly mixed, and incubated for respective times at room temperature. • 9. The kinase reaction was stopped by adding 30 μL of a detection termination solution, and the plate was centrifuged at 1000 rpm for 30 s and shaken and uniformly mixed. • 10. The conversion rate was read with Caliper EZ Reader and the half maximal inhibitory concentration (IC50) was calculated.

The target of the next assay is JAK2 (Homo sapiens (Human), UniProt O60674). Nature of the assay: JAK2 inhibitory activity, mobility shift assay, 1 mM ATP. It is filed as biochemical. The following applies: Table 7. Here is the method:
as §1, §2

Each structure is given as a SMILES string. Where only a bound is given, the exact number is not on record here.

Chain of JAK1 (P23458 850-1154): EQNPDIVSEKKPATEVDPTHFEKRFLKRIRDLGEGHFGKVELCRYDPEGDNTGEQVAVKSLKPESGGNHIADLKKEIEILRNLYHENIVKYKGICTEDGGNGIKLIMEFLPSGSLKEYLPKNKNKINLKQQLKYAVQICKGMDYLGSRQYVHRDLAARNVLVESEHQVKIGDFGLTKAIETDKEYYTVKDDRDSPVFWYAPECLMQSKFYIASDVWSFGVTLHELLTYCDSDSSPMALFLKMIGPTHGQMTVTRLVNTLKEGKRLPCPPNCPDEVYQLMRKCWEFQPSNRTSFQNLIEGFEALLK
Chain of JAK2 (O60674 826-1132): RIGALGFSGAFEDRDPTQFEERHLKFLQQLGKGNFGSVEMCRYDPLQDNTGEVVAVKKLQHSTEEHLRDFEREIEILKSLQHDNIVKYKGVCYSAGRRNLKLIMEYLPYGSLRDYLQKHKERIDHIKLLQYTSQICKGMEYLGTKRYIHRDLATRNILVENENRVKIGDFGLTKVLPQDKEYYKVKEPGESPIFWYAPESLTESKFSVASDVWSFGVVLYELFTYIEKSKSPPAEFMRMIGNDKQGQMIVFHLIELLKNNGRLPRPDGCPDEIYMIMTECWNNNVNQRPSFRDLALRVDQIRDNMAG

In turn, `CCCS(=O)(=O)N[C@H]1C[C@@H](N(C)c2ncnc3[nH]ccc23)C1` [abrocitinib, reference compound] came in with an IC50 in assay [1] of 204 nM.
Take `COc1nn(C)cc1Nc1ncc(F)c(-c2c[nH]c3c(NC(=O)[C@H]4CC(F)(F)CN4[C@@H]4CCN(C)C4)cccc23)n1` [Example 26, (2R,3′R)-4,4-difluoro-N-(3-(5-fluoro-2-((3-methoxy-1-methyl-1H-pyrazol-4-yl)amino)pyrimidin-4-yl)-1H-indol-7-yl)-1′-methyl-[1,3′-bipyrrolidine]-2-carboxamide]: the IC50 was found to be 48 nM on JAK1 and 5490 nM on JAK2.
For `COc1nn(C)cc1Nc1ncc(C)c(-c2c[nH]c3c(NC(=O)[C@H]4CC(F)(F)CN4C4CCN(C)CC4)cccc23)n1` [Example 16, (R)-4,4-difluoro-N-(3-(2-((3-methoxy-1-methyl-1H-pyrazol-4-yl)amino)-5-methylpyrimidin-4-yl)-1H-indol-7-yl)-1-(1-methylpiperidin-4-yl)pyrrolidine-2-carboxamide], in that order: 40 nM and 3340 nM.
Consider `COc1nn(C)cc1Nc1nccc(-c2c[nH]c3c(NC(=O)[C@H]4C[C@H](F)CN4[C@H]4CCN(C)C4)cccc23)n1` (single isomer, unassigned) [Example 21], for which the half-maximal inhibitory concentration (IC50) at JAK1 is 262 nM; at JAK2, > 30000 nM.
`COc1nn(C)cc1Nc1ncc(F)c(-c2c[nH]c3c(NC(=O)[C@H]4CC(F)(F)CN4[C@H]4CCN(C)C4)cccc23)n1` [Example 27, (2R,3′S)-4,4-difluoro-N-(3-(5-fluoro-2-((3-methoxy-1-methyl-1H-pyrazol-4-yl)amino)pyrimidin-4-yl)-1H-indol-7-yl)-1′-methyl-[1,3′-bipyrrolidine]-2-carboxamide]: the IC50 at JAK1 turned out to be 60 nM; on JAK2, 4400 nM.
For `COc1nn(C)cc1Nc1ncc(F)c(-c2c[nH]c3c(NC(=O)[C@H]4C[C@@H](F)CN4C4CCNCC4)cccc23)n1` [Example 7, (2R,4R)-4-fluoro-N-(3-(5-fluoro-2-((3-methoxy-1-methyl-1H-pyrazol-4-yl)amino)pyrimidin-4-yl)-1H-indol-7-yl)-1-(piperidin-4-yl)pyrrolidine-2-carboxamide], in that order: 152 nM and 4410 nM.
In the case of `COc1nn(C)cc1Nc1ncc(C)c(-c2c[nH]c3c(NC(=O)[C@H]4C[C@H](F)CN4C4CCN(C)CC4)cccc23)n1` [Example 14, (2R,4S)-4-fluoro-N-(3-(2-((3-methoxy-1-methyl-1H-pyrazol-4-yl)amino)-5-methylpyrimidin-4-yl)-1H-indol-7-yl)-1-(1-methylpiperidin-4-yl)pyrrolidine-2-carboxamide], the 50% inhibitory concentration (IC50) was 41 nM at JAK1 and 6620 nM at JAK2.
On the same counts, the results for `COc1nn(C)cc1Nc1ncc(C)c(-c2c[nH]c3c(NC(=O)[C@H]4CCCN4C4CCN(C)CC4)cccc23)n1` [Example 11, (R)-N-(3-(2-((3-methoxy-1-methyl-1H-pyrazol-4-yl)amino)-5-methylpyrimidin-4-yl)-1H-indol-7-yl)-1-(1-methylpiperidin-4-yl)pyrrolidine-2-carboxamide] are 69 nM and 12100 nM.
On the same counts, the results for `COc1nn(C)cc1Nc1ncc(F)c(-c2c[nH]c3c(NC(=O)[C@H]4C[C@@H](OC)CN4C4CCNCC4)cccc23)n1` [Example 8, (2R,4R)-N-(3-(5-fluoro-2-((3-methoxy-1-methyl-1H-pyrazol-4-yl)amino)pyrimidin-4-yl)-1H-indol-7-yl)-4-methoxy-1-(piperidin-4-yl)pyrrolidine-2-carboxamide] are 1170 nM and 10500 nM.
For `COc1nn(C)cc1Nc1nccc(-c2c[nH]c3c(NC(=O)[C@H]4C[C@H](F)CN4C4CCN(C)CC4)cccc23)n1` [Example 40, (2R,4S)-4-fluoro-N-(3-(2-((3-methoxy-1-methyl-1H-pyrazol-4-yl)amino)pyrimidin-4-yl)-1H-indol-7-yl)-1-(1-methylpiperidin-4-yl)pyrrolidine-2-carboxamide], in that order: 259 nM and 24300 nM.
Turning to `CCS(=O)(=O)N1CCC[C@H]1C(=O)Nc1cccc2c(-c3nc(Nc4cn(C)nc4OC)ncc3F)c[nH]c12` [Example 2, (S)-N-(3-(5-fluoro-2-((3-methoxy-1-methyl-1H-pyrazol-4-yl)amino)pyrimidin-4-yl)-1H-indol-7-yl)-1-(ethanesulfonyl)pyrrolidine-2-carboxamide], the IC50 on JAK1 came to 137 nM; on JAK2, 1850 nM.
Turning to `COc1nn(C)cc1Nc1nccc(-c2c[nH]c3c(NC(=O)[C@H]4CC(F)(F)CN4[C@@H]4CCN(C)C4)cccc23)n1` [Example 36, (2R,3′R)-4,4-difluoro-N-(3-(2-((3-methoxy-1-methyl-1H-pyrazol-4-yl)amino)pyrimidin-4-yl)-1H-indol-7-yl)-1′-methyl-[1,3′-bipyrrolidine]-2-carboxamide], the values for the half-maximal inhibitory concentration (IC50) at JAK1 and on JAK2 were 91 nM and 12000 nM, respectively.
`COc1nn(C)cc1Nc1ncc(F)c(-c2c[nH]c3c(NC(=O)[C@H]4CCCN4[C@H]4CCNC4)cccc23)n1` [Example 23, (2R,3′S)-N-(3-(5-fluoro-2-((3-methoxy-1-methyl-1H-pyrazol-4-yl)amino)pyrimidin-4-yl)-1H-indol-7-yl)-[1,3′-bipyrrolidine]-2-carboxamide]: the figures for the IC50 at JAK1 and on JAK2 were 59 nM and 5370 nM, respectively.
On the same counts, the results for `COc1nn(C)cc1Nc1ncc(F)c(-c2c[nH]c3c(NC(=O)[C@H]4C[C@H](F)CN4C4CCNCC4)cccc23)n1` [Example 6, (2R,4S)-4-fluoro-N-(3-(5-fluoro-2-((3-methoxy-1-methyl-1H-pyrazol-4-yl)amino)pyrimidin-4-yl)-1H-indol-7-yl)-1-(piperidin-4-yl)pyrrolidine-2-carboxamide] are 68 nM and 4000 nM.
For `COc1nn(C)cc1Nc1ncc(C)c(-c2c[nH]c3c(NC(=O)[C@H]4C[C@H](F)CN4[C@H]4CCN(C)C4)cccc23)n1` [Example 31, (2R,3′S,4S)-4-fluoro-N-(3-(2-((3-methoxy-1-methyl-1H-pyrazol-4-yl)amino)-5-methylpyrimidin-4-yl)-1H-indol-7-yl)-1′-methyl-[1,3′-bipyrrolidine]-2-carboxamide], in that order: 92 nM and 11900 nM.
On the same counts, the results for `COc1nn(C)cc1Nc1ncc(F)c(-c2c[nH]c3c(NC(=O)[C@H]4CCCN4[C@H]4CCN(C)C4)cccc23)n1` [Example 25, (2R,3′S)-N-(3-(5-fluoro-2-((3-methoxy-1-methyl-1H-pyrazol-4-yl)amino)pyrimidin-4-yl)-1H-indol-7-yl)-1′-methyl-[1,3′-bipyrrolidine]-2-carboxamide] are 68 nM and 12400 nM.
Turning to `COc1nn(C)cc1Nc1ncc(F)c(-c2c[nH]c3c(NC(=O)[C@H]4C[C@H](F)CN4[C@H]4CCN(C)C4)cccc23)n1` [Example 39, (2R,3′S,4S)-4-fluoro-N-(3-(5-fluoro-2-((3-methoxy-1-methyl-1H-pyrazol-4-yl)amino)pyrimidin-4-yl)-1H-indol-7-yl)-1′-methyl-[1,3′-bipyrrolidine]-2-carboxamide], the concentration for half-maximal inhibition (IC50) at JAK1 was 50 nM; on JAK2, 4850 nM.

What is called IC50 is the concentration needed to halve the response being measured.
